Experimental data reported in patent US20100292200A1, “Methods for Modulating Apoptosis in Platelets” (The Walter and Eliza Hall Institute of Medical Research, priority 2006, published 2010).
“Also recorded” adds a separate entry of the source.

Columns and labels:
[1] = test system: reticulated platelets; experiment: Reticulated platelet labeling (thiazole orange) after ABT-737; assay type: in vivo, mouse; details: thiazole orange staining after a single dose
Description: Animals were bled 2-24 h afterwards and platelet counts determined. […] (B) Platelet recovery after a single dose of ABT-737. Platelet counts (blue symbols; left axis) were determined 2-96 h after a single dose of ABT-737 (red arrow). […] Orange symbols represent serum TPO levels (right axis). (C) Cyclical acute thrombocytopaenia triggered by ABT-737. Platelet counts were determined before and 8 h after a single dose of ABT-737 (red arrows) given at weekly intervals. […] During recovery, baseline counts drifted upwards. (D) ABT-737 acts selectively on aged platelets. […] (E) Synchronizing platelets. […] During recovery, the newly synthesized younger platelets are larger as indicated by the increased mean platelet volume (blue symbols; right axis). (F) Young platelets are resistant to ABT-737. Wild type C57BL/6 mice were treated with APS, and then injected with ABT-737 (red arrows) either 2 or 7 days afterwards. Absolute platelet counts and the % of reticulated platelets were measured. The top panels show representative flow cytometric profiles following thiazole orange staining before or after ABT-737 injections. The bottom panels show platelet counts prior to or 2 h post ABT-737 injection. Data in (B), (C), (E) and (F) represent means±SD of 3-6 mice at each time point.
Staining of reticulated platelets was performed using thiazole orange. […]

[2] = mouse, in vivo; cited from earlier work
[3] = test system: human platelets; details: 1 μM for 1 or 2 h
Description: Human whole blood was obtained with informed consent (approved by the Institutional Review Board), Platelet rich plasma was obtained and incubated at room temperature with drug or control for up to 2 h. Platelets were counted manually in triplicate using a hemacytometer.

[4] = test system: megakaryocytes; details: mouse, in vivo
Description: (§1) The hematocrit, platelet and white cell count, and differential were determined by using either manual or automated (Advia 120) counting techniques. In most experiments, with the exception of data shown in FIGS. 1A and 6E, the data was collected from male mice. Clonal cultures of 2.5×10^4 adult bone marrow cells or 5×10^4 spleen cells in 1 mL of 0.3% agar in DMEM supplemented with newborn calf serum (20%) were stimulated with a mixture of 100 ng/mL murine stem cell factor, 10 ng/mL murine IL-3, 4 units/mL human EPO and incubated for 7 days at 37° C. in a fully humidified atmosphere of 10% CO2 in air. Agar cultures were fixed, sequentially stained for acetylcholinesterase, Luxol fast blue and hematoxylin; the cellular composition of each colony determined at ×100-400 magnification. Megakaryocyte counts were performed by manual counting from sections of sternum and spleen after staining with hematoxylin/eosin. A minimum of 10 high-power fields (×200) were scored.

[5] = test system: human platelet rich plasma; experiment: Platelet aggregometry on human platelet rich plasma; assay type: cell-based
Description: Platelet aggregometry performed on human platelet rich plasma (250×10^9/L platelets) pre-incubated for 1 h with 1 μM ABT-737 (green line) or not (red) before stimulation with (A) collagen (4 μg/ml) or (B) ADP (10 μM).
Whole blood was collected in sodium citrate (3.2%) and platelet rich plasma obtained by centrifugation at 800 rpm for 12 min at room temperature. Platelet poor plasma was then obtained by centrifugation of remaining blood at 3,000 rpm for 15 min at room temperature. Platelet count was adjusted to 250×10^9/L using platelet poor plasma. Diluted platelet rich plasma was placed in an aggregometer cuvette warmed to 37° C. and stirred whilst light transmission through the plasma was measured in a 4 channel platelet aggregometer. After baseline measurements were obtained, ADP or Collagen (both from Edward Keller) was added to induce aggregation.

[6] = test system: cells from the bone marrow of C57BL/6 mice; experiment: formation of hematopoietic progenitors in vitro (soft agar colony cultures); assay type: cell-based, mouse
Description: Cells (25,000) from the bone marrow of C57BL/6 mice were cultured in soft agar with G-CSF, IL-3 and EPO for 7 r d, stained and counted. Saline or ABT-737 was added on days 1, 3 and 5. […] G, granulocyte colony; GM, granulocyte/macrophage colony; M, macrophage colony; EO, eosinophil colony; Meg, megakaryocyte colony. Total colony counts are the means of two cultures; megakaryocyte colony counts represent the means±SD of four indepdendent cultures.
as §1

[7] = test system: tumor cell lines derived from small cell lung cancers or lymphomas; details: small cell lung cancer or lymphoma derived lines; Oltersdorf et al., 2005; cited from earlier work
[8] = test system: platelets; experiment: ABT-737 administration to mice, peripheral blood platelet counts; assay type: in vivo, mouse
Description: Animals were bled 2-24 h afterwards and platelet counts determined. […] Platelet counts (blue symbols; left axis) were determined 2-96 h after a single dose of ABT-737 (red arrow). […] Orange symbols represent serum TPO levels (right axis). […] Platelet counts were determined before and 8 h after a single dose of ABT-737 (red arrows) given at weekly intervals. […] (E) Synchronizing platelets. […] Wild type C57BL/6 mice were treated with APS, and then injected with ABT-737 (red arrows) either 2 or 7 days afterwards. Absolute platelet counts and the % of reticulated platelets were measured. The top panels show representative flow cytometric profiles following thiazole orange staining before or after ABT-737 injections. The bottom panels show platelet counts prior to or 2 h post ABT-737 injection. Data in (B), (C), (E) and (F) represent means±SD of 3-6 mice at each time point. […]
as §1
Mice were injected intra-peritoneally with 75 mg/kg of ABT-737 given as a single dose or daily. A stock solution of ABT-737 (1 g/mL in DMSO) was diluted in a mixture of 30% propylene glycol, 5% Tween 80, 65% D5W (5% dextrose in water), pH 4-5; the final concentration of DMSO was less than 1%.

[9] = ABT-737 1 μM added on days 1, 3 and 5, 25,000 bone marrow cells, 7 d, mean of two cultures
[10] = progenitor cell cultures in vitro

CN(C)CC[C@H](CSc1ccccc1)Nc1ccc(S(=O)(=O)NC(=O)c2ccc(N3CCN(Cc4ccccc4-c4ccc(Cl)cc4)CC3)cc2)cc1[N+](=O)[O-] [ABT-737]
proportion of reticulated platelets post ABT-737 [1]: transient increase; also recorded: increased proportion | tolerability in mice [2]: well-tolerated | susceptibility of human platelets to ABT-737 [3]: caspase-dependent susceptibility | megakaryocytopoiesis in ABT-737 treated mice [4]: normal, or probably even elevated | responses to other agonists (Epinephrine, Arachidonic Acid, Ristocetin) ([5]; 1 μM ABT-737 (data not shown)): did not alter responses | platelet activation / aggregation in response to collagen or ADP ([5]; pre-incubated 1 h with 1 μM ABT-737, collagen 4 μg/ml or ADP 10 μM): did not trigger platelet activation or adversely impact upon the ability of platelets to aggregate; also recorded: did not induce platelet aggregation or affect that with agonists | Blast colonies [6, 9]: 16 | Eo, eosinophil colony [6, 9]: 1 | G, granulocyte colony [6, 9]: 14 | GM, granulocyte/macrophage colony [6, 9]: 6 | M, macrophage colony [6, 9]: 14 | Meg, megakaryocyte colony ([6]; ABT-737 1 μM added on days 1, 3 and 5, 25,000 bone marrow cells, 7 d, means±SD of four independent cultures): 14 ± 6 | effect on formation of other colonies [6, 10]: unaffected | effect on megakaryocyte colony formation [6, 10]: no effect; also recorded: minor effect | efficacy against tumor cell lines [7]: single agent efficacy | effect of ABT-737 on newly synthesized young platelets ([8]; ABT-737 injected 2 days post-APS, counts 2 h post injection): highly resistant | effect of ABT-737 on aged platelets ([8]; ABT-737 injected 7 days post APS, counts 2 h post injection): susceptible | effect of ABT-737 on platelets in Bak^-/- Bax^+/- mice ([8]; Bak^-/- Bax^+/- mice, single dose 75 mg/kg, 0-24 h, 75 mg/kg): entirely refractory; also recorded: enthely refractory; also recorded: completely protected | effect of ABT-737 on platelet counts in Bak^-/- mice ([8]; Bak^-/- mice, single dose 75 mg/kg, 0-24 h, 75 mg/kg): significantly buffered; also recorded: unaffected by ABT-737 at early time points (up to 4 h) | impact of loss of Bax alone on the effect of ABT-737 ([8]; Bax-deficient mice (data not shown)): little impact | ABT-737-induced thrombocytopaenia in Bcl-x^+/- mice ([8]; Bcl-x^+/- vs wild type and Bcl-2^+/- mice, single dose 75 mg/kg, 2-24 h, 75 mg/kg): exacerbates | platelet levels during continued daily ABT-737 ([8]; daily injections continued for 14 days): 60-70 % of normal | platelet counts with weekly ABT-737 ([8]; single dose given at weekly intervals, counts before and 8 h after): acute thrombocytopaenia ensued in a cyclical manner; also recorded: comparable drop in platelets each time | dose dependence of thrombocytopaenia ([8]; wild type C57BL/6 mice (data not shown)): dose dependent | platelet counts after recovery from a single dose ([8]; wild type C57BL/6 mice, 2-96 h after a single dose): rebound thrombocytosis by day 4 | time for platelet counts to recover to normal levels ([8]; wild type C57BL/6 mice, after a single dose): ≤ 3 days
